Assay results from US9017935B2, “HIV-1 latency model for high throughput screening” (priority 2005, dated 2015).

Columns and labels:
latent HIV-1 proviruses = conditions: background, literature; cited from earlier work
[1] = recently reported (ref. 43); cited from earlier work
[2] = system: latent HIV-1 vector provirus in 24ST1NLESG cells; assay: SEAP assay for late gene expression, 24ST1NLESG cells; assay type: cell-based; conditions: for fold induction in SEAP activity: TNF-α 50 ng/ml
Procedure: (§1) FIG. 3. Reactivation of early and late viral gene expression in three clonal cell lines by TNF-α. (A) 19ST1NLESG, 24ST1NLESG, and 29ST1NLESG cells (10^6/ml) were exposed to TNF-α (50 ng/ml) and four days after gfp expressing cells were analyzed by flow cytometry. The left panels show the histograms of unstimulated cells, and the right panels represent the histogram analysis of TNF-α (50 ng/ml) stimulated cells. Numbers show the percentages of gfp positive cells. (B) SEAP in the cultured media of untreated and TNF-α (50 ng/ml) stimulated 19ST1NLESG, 24ST1NLESG, 29ST1NLESG cells two and four days post plating. (C) Fold induction of SEAP expression in 19ST1NLESG, 24ST1NLESG, and 29ST1NLESG cells (10^6/m1) after stimulation with TNF-α (50 ng/ml). Readings were taken on the second and fourth days post activation. Results shown are the means and standard deviations of one of three representative experiments.
FIG. 4. SEAP activation in 24ST1NLESG cells at different concentrations of TNF-α. SEAP synthesis by 24ST1NLESG cells (10^6/ml) four days post-activation with various concentrations (0.1 to 100 ng/ml) of TNF-α. The numbers above the bars show the fold induction of enzymatic activity calculated as ratio between the average value of RLU per sample induced cells compared to the mean RLU value of uninduced cells. RLU, relative light units. Results shown are the means and standard deviations of one of three representative experiments.
(§2) In order to provide a well characterized system to identify molecules that can activate latent virus, SupT1 cell clones harboring latent vector provirus were isolated. […] Even at 0.1 ng/ml of TNF-α induction could be detected yielding SEAP activity 4-fold above background (FIG. 4).
(§3) 1×10^6 or 1×10^5 cells from the clonal cell lines or mass populations of infected cells were resuspended in RPMI media with or without the activator. […] The relative light units (RLU) were measured with a tube luminometer (Turner Designs 20/20) or a MLX Microtiter Plate Luminometer (DYNEX Technologies).

[3] = system: latent HIV-1 vector provirus in 19ST1NLESG cells; assay: SEAP assay for late gene expression, 19ST1NLESG cells; assay type: cell-based; conditions: TNF-α 50 ng/ml, day 2 post treatment
Procedure: as §1, with “Results shown are the means and standard deviations of one of three representative experiments.” left out
as §2, §3

[4] = system: latent HIV-1 vector provirus in 29ST1NLESG cells; assay: SEAP assay for late gene expression, 29ST1NLESG cells; assay type: cell-based; conditions: TNF-α 50 ng/ml, day 2 post treatment
Procedure: as §1, with “Results shown are the means and standard deviations of one of three representative experiments.” left out
as §2, §3

[5] = system: latent HIV-1 vector provirus in 24ST1NLESG cells; assay: HIV-1 p24gag ELISA, 24ST1NLESG cells; assay type: cell-based; conditions: TNF-α 50 ng/ml
Procedure: FIG. 5. HIV-1 Gag p24 protein production in 24ST1NLESG cells. HIV-1 Gag p24 protein was detected in the cultured media of untreated and TNF-α (50ng/ml) treated 24ST1NLESG cells (10^6/ml) two and four days post-plating. Results shown are the means and standard deviations of one or two representative experiments.
To further characterize the 24ST1NLESG cell line, p24^gag expression was monitored using the ELISA after treatment with TNF-α (50 ng/ml) (FIG. 5).
HIV gag transfer assay. 1×10^6 SupT1 infected cells (latent mass population and clonal cell lines) were plated followed by harvesting supernatant one week later. Samples were collected both from TNF-α activated and untreated cells. They were passed through a 0.45-μm pore-size filter and used to inoculate […] 10^6 parental SupT1 cells for 24 h. The cells were washed twice with PBS and resuspended in fresh media. The same process was repeated once again with conditioned media from the targeted parental cells, and a new batch of SupT1 cells was treated. Passing the conditioned media over two sets of virgin SupT1 cells helps to assure that the carryover of gag protein in the samples will be eliminated and only the de novo synthesized protein, if present, will be assessed. […] Samples were considered virus free when the p24^gag concentration was below the detection threshold, which for this assay, was determined to be 10 pg/ml.

[6] = system: latent HIV-1 vector provirus in NLE-S-G infected SupT1 cells; assay: Flow cytometry of GFP positive cells, mass population of NLE-S-G infected SupT1 cells; assay type: cell-based; conditions: mass population three weeks post-infection (2% before treatment), TNF-α 100 ng/ml, analyzed forty-eight hours after exposure
From the text: FIG. 2. Infection of SupT1 cells by NLE^-S-G vector virus. (A) The upper panels depict uninfected SupT1 cells. The lower panels show SupT1 cells that have been infected with NLE-S-G virus. The phase contrast (left panels) and fluorescence microscopy (right panels) images were captured five days post-infection. (B) Flow cytometric analysis of SupT1 cells either mock infected or infected with NLE^−S-G analyzed at day five post-infection or three weeks post-infection. […] Three weeks post infection mass population of unsorted NLE^−S-G infected SupT1 cells (10^6 cells/ml) were stimulated with TNF-α (100 ng/ml). Cells were analyzed forty-eight hours after exposure. Numbers represent the percentages of gfp positive cells. (C) SEAP activity in the conditioned media from NLE^−S-G infected unsorted SupT1 cells (10^6 cells/ml) four days, three weeks and one month post-infection. Three weeks post-infection, a sample (10^6 cells/ml) of a mass population of NLE^−S-G infected SupT1 cells was treated with TNF-α (100 ng/ml) and analyzed four days post activation. RLU, relative light units.
The infected mass population of cells was next tested for its ability to establish a latent infection. The infected mass population of SupT1 cells was maintained in culture for one month. […] This was also reflected in the reduction of SEAP expression by the third week (FIG. 2C). […]

[7] = system: latent HIV-1 vector provirus in 24ST1NLESG cells; assay: Quantitative real-time RT-PCR of HIV-1 mRNA, 24ST1NLESG cells; assay type: cell-based; conditions: TNF-α 50 ng/ml, day 4 post-stimulation, normalized to β-actin
Procedure: FIG. 6. Real-time RT-PCR for relative quantification of HIV-1 mRNA levels in 24ST1NLESG cells before and after activation from latency. Quantitative real-time RT-PCR was performed with RNA isolated from 24ST1NLESG cells (10^6/ml) following one and four days after stimulation with TNF-α (50 ng/ml). cDNA was synthesized with polyT oligo, and the reactions were completed with primers to viral (Rev2) and cellular (β-actin) genes with SYBR green detection. The ‘Delta-delta method’ (PE Applied Biosystems) was used to compare the relative expression results (ΔCT) between the values obtained from the RNA samples from stimulated cells to the values obtained from RNA isolated from untreated cells. The results were normalized to the expression of β-actin. […]
The consistent reactivation of viral genes as evidenced by the pattern of expression of the three markers assayed correlated with an increase in the relative levels of total viral mRNA. The relative amount of total HIV-1 mRNA was determined by quantitative real-time PCR using primers to the second exon of rev (Rev2). […] Therefore, only the level of mature polyadenylated RNA was detected.
The relative ratio of viral RNA after stimulation of 24ST1NLESG latent cells was determined as described in the Examples using the relative RNA results obtained for the unstimulated 24ST1NLESG cells as a control. β-actin was used as a reference gene. […]

[8] = system: latent HIV-1 vector provirus in NLE-S-G infected SupT1 cells; assay: SEAP assay, mass population of NLE-S-G infected SupT1 cells; assay type: cell-based; conditions: mass population three weeks post-infection, TNF-α 100 ng/ml, four days post activation
From the text: The infected mass population of cells was next tested for its ability to establish a latent infection. The infected mass population of SupT1 cells was maintained in culture for one month. […] This was also reflected in the reduction of SEAP expression by the third week (FIG. 2C). It was shown in previous studies that tumor necrosis factor (TNF)-α could activate HIV-1 virus production from latently infected cell lines (30).
1×10^6 or 1×10^5 cells from the clonal cell lines or mass populations of infected cells were resuspended in RPMI media with or without the activator. At the indicated day post plating, samples were taken to determine the activity of SEAP. The assay was performed using a SEAP Detection kit (BD Biosciences, Palo Alto, Calif.) according to the manufacturer's protocol. The relative light units (RLU) were measured with a tube luminometer (Turner Designs 20/20) or a MLX Microtiter Plate Luminometer (DYNEX Technologies).

Molecule	activation of latent virus (latent HIV-1 proviruses)	cytotoxicity [1]	SEAP activity above background ([2]; 0.1 ng/ml TNF-α, four days post-activation)	fold induction in SEAP activity ([2]; day 2 post treatment)	fold induction in SEAP activity ([2]; day 4)	fold induction in SEAP activity [3]	fold induction in SEAP activity [4]	concentration of p24gag above background ([5]; 2 days post-activation)	concentration of p24gag above background ([5]; 4 days post-activation)	number of GFP-positive cells after treatment [6]	increase in relative ratio of viral RNA [7]	increase in SEAP activity [8]
CCCCCCCCCCCCCC(=O)O[C@@H]1[C@@H](C)[C@@]2(O)[C@@H](C=C(CO)C[C@]3(O)C(=O)C(C)=C[C@@H]23)[C@@H]2C(C)(C)[C@]12OC(C)=O [PMA, phorbol 12-myristate 13-acetate]	could stimulate latent virus	–	–	–	–	–	–	–	–	–	–	–
CC(=O)O[C@@]12C[C@@H](C)[C@@]3(O)[C@@H](C=C(CO)C[C@]4(O)C(=O)C(C)=C[C@@H]34)[C@@H]1C2(C)C [prostratin]	able to activate latent virus	significant cytotoxicity	–	–	–	–	–	–	–	–	–	–
TNF-α	–	–	4 fold	~400 fold	approximately 600 fold	approximately 50 fold	~150 fold	50 fold	100 fold	19%	at least 100 fold	400 fold
